In ChEMBL document CHEMBL1152844, “Synthesis and anti-HIV studies of 2- and 3-adamantyl-substituted thiazolidin-4-ones” (Eur J Med Chem, 2009):
The source made the active and inactive calls. The rule behind the calls is not given here.

How the values were obtained:
Feline coronavirus = assay: Antiviral activity against Feline coronavirus infected in crandel feline kidney cells; format: functional, organism-based
Sindbis virus = assay: Antiviral activity against Sindbis virus infected in african green monkey Vero cells; format: functional, organism-based
[1] = system: Mammalian orthoreovirus 1; assay: Antiviral activity against Reovirus 1 infected in african green monkey Vero cells; format: functional, organism-based
Human alphaherpesvirus 1 = assay: Antiviral activity against Herpes simplex virus type 1 infected in HEL cells; format: functional, organism-based
[2] = system: Human immunodeficiency virus 2; assay: Antiviral activity against HIV2 ROD infected in human CEM cells assessed as inhibition of virus-induced cytopathicity after 4 days; format: functional, organism-based; conditions: Human immunodeficiency virus 2, ROD, CCRF-CEM, 96 h
Coxsackievirus B4 [3] = assay: Antiviral activity against Coxsackievirus B4 infected in human HeLa cells; format: functional, organism-based
Punta Toro virus = assay: Antiviral activity against Punta Toro virus infected in african green monkey Vero cells; format: functional, organism-based
[4] = Selectivity index, ratio of CC50 for human CEM cells to EC50 for HIV1 3B; format: toxicity, cell-based, CCRF-CEM; conditions: read-out: Ratio CC50/EC50
Influenza B virus = assay: Antiviral activity against Influenza virus type B infected in MDCK cells; format: functional, organism-based
Human alphaherpesvirus 2 = assay: Antiviral activity against Herpes simplex virus type 2 infected in HEL cells; format: functional, organism-based
[5] = system: Respiratory syncytial virus; assay: Antiviral activity against Respiratory syncytial virus infected in human HeLa cells; format: functional, organism-based
Coxsackievirus B4 [6] = assay: Antiviral activity against Coxsackievirus B4 infected in african green monkey Vero cells; format: functional, organism-based
[7] = system: Human immunodeficiency virus 1; assay: Antiviral activity against HIV1 3B infected in human CEM cells assessed as inhibition of virus-induced cytopathicity after 4 days; format: functional, organism-based; conditions: Human immunodeficiency virus 1, 3B, CCRF-CEM, 96 h
[8] = system: Vesicular stomatitis virus; assay: Antiviral activity against Vesicular stomatitis virus infected in HEL cells; format: functional, organism-based
Influenza A virus [9] = assay: Antiviral activity against Influenza virus type A H3N2 infected in MDCK cells; format: functional, organism-based
Human respirovirus 3 = assay: Antiviral activity against Parainfluenza virus type 3 infected in african green monkey Vero cells; format: functional, organism-based
CCRF-CEM = assay: Cytotoxicity against HIV-infected human CEM cells; format: cell-based; conditions: ccrf-cem
Influenza A virus [10] = assay: Antiviral activity against Influenza virus type A H1N1 infected in MDCK cells; format: functional, organism-based
Vaccinia virus = assay: Antiviral activity against Vaccinia virus infected in HEL cells; format: functional, organism-based; conditions: Orthopoxvirus vaccinia
[11] = system: Vesicular stomatitis virus; assay: Antiviral activity against Vesicular stomatitis virus infected in human HeLa cells; format: functional, organism-based
[12] = biological target: Human immunodeficiency virus type 1 reverse transcriptase (Human immunodeficiency virus 1, UniProt Q72547); assay: Inhibition of HIV1 3B reverse transcriptase after 30 mins
[13] = Inhibition of HIV2 ROD reverse transcriptase after 30 mins; parameters: species or system Human immunodeficiency virus 2

Row | SMILES | Activity (Feline coronavirus) | Activity (Sindbis virus) | Activity [1] | Activity (Human alphaherpesvirus 1) | EC50 [2] | Activity (Coxsackievirus B4 [3]) | Activity (Punta Toro virus) | selectivity ratio [4] | Activity (Influenza B virus) | Activity (Human alphaherpesvirus 2) | Activity [5] | Activity (Coxsackievirus B4 [6]) | EC50 [7] | Activity [8] | Activity (Influenza A virus [9]) | Activity (Human respirovirus 3) | CC50 (CCRF-CEM) | Activity (Influenza A virus [10]) | Activity (Vaccinia virus) | Activity [11] | further results
1 | Cc1ccnc(N2C(=O)CSC2C23CC4CC(CC(C4)C2)C3)n1 (stereo unspecified) | inactive | inactive | inactive | inactive | > 60.7 µM | inactive | inactive | 30 | inactive | inactive | inactive | inactive | 4.5 µM | inactive | inactive | inactive | 136 µM | inactive | inactive | inactive | 
2 | O=C1CSC(c2c(Cl)cccc2Cl)N1CCC12CC3CC(CC(C3)C1)C2 (stereo unspecified) | inactive | inactive | inactive | inactive | ≥ 9.7 µM | inactive | inactive | 5.5 | inactive | inactive | inactive | inactive | 3.4 µM | inactive | inactive | inactive | 19 µM | inactive | inactive | inactive | IC50 [12]: 226 µM; IC50 [13]: > 600 µM
3 | COc1cc(C2SCC(=O)N2CC23CC4CC(CC(C4)C2)C3)cc(OC)c1OC (stereo unspecified) | inactive | inactive | inactive | inactive | ≥ 10.9 µM | inactive | inactive | < 1.6 | inactive | inactive | inactive | inactive | ≥ 10.9 µM | inactive | inactive | inactive | 18 µM | inactive | inactive | inactive | 
4 | Cc1ccnc(N2C(=O)CSC2CC23CC4CC(CC(C4)C2)C3)c1 (stereo unspecified) | inactive | inactive | inactive | inactive | 21.9 µM | inactive | inactive | 1.6 | inactive | inactive | inactive | inactive | 18.1 µM | inactive | inactive | inactive | 29.3 µM | inactive | inactive | inactive | 
5 | O=C1CSC(c2c(Cl)cccc2Cl)N1CC12CC3CC(CC(C3)C1)C2 (stereo unspecified) | inactive | inactive | inactive | inactive | ≥ 10.1 µM | inactive | inactive | 21 | inactive | inactive | inactive | inactive | 1 µM | inactive | inactive | inactive | 21.1 µM | inactive | inactive | inactive | IC50 [12]: 42.9 µM; IC50 [13]: ≥ 600 µM
6 | O=C1CSC(c2c(F)cccc2F)N1CC12CC3CC(CC(C3)C1)C2 (stereo unspecified) | inactive | inactive | inactive | inactive | 35.7 µM | inactive | inactive | > 25 | inactive | inactive | inactive | inactive | 11 µM | inactive | inactive | inactive | > 275 µM | inactive | inactive | inactive | IC50 [12]: 495 µM; IC50 [13]: > 600 µM
7 | O=C1CSC(c2c(F)cccc2F)N1CCC12CC3CC(CC(C3)C1)C2 (stereo unspecified) | inactive | inactive | inactive | inactive | ≥ 4 µM | inactive | inactive | 4 | inactive | inactive | inactive | inactive | 2 µM | inactive | inactive | inactive | 7.9 µM | inactive | inactive | inactive | IC50 [12]: 31.7 µM; IC50 [13]: ≥ 600 µM
8 | Cc1cc(Cl)nc(N2C(=O)CSC2C23CC4CC(CC(C4)C2)C3)n1 (stereo unspecified) | inactive | inactive | inactive | inactive | 120 µM | inactive | inactive | < 5 | inactive | inactive | inactive | inactive | ≥ 54.9 µM | inactive | inactive | inactive | > 275 µM | inactive | inactive | inactive | 
9 | Cc1cc(C)nc(N2C(=O)CS[C@@H]2C23CC4CC(CC(C4)C2)C3)c1 | inactive | inactive | inactive | inactive |  | inactive | inactive |  | inactive | inactive | inactive | inactive |  | inactive | inactive | inactive |  | inactive | inactive | inactive | IC50 [12]: 13.4 µM; IC50 [13]: > 600 µM
10 | Cc1cc(Cl)nc(N2C(=O)CSC2CC23CC4CC(CC(C4)C2)C3)n1 (stereo unspecified) | inactive | inactive | inactive | inactive | ≥ 53 µM | inactive | inactive | < 1.9 | inactive | inactive | inactive | inactive | > 53 µM | inactive | inactive | inactive | 102 µM | inactive | inactive | inactive | 
